Tests used:
Format in all cases: functional, cell-based
[1] = system: MGC-803; test: Antiproliferative activity against human MGC-803 cells assessed as cell growth inhibition measured after 48 hrs by CCK8 assay; conditions: MGC-803, 48 h
[2] = system: KYSE-450; test: Antiproliferative activity against human KYSE-450 cells assessed as cell growth inhibition measured after 48 hrs by CCK8 assay; conditions: KYSE-450, 48 h
[3] = system: HCT-116; test: Antiproliferative activity against human HCT-116 cells assessed as cell growth inhibition measured after 48 hrs by CCK8 assay; conditions: HCT-116, 48 h

SMILES	IC50 [1] [µM]	IC50 [3] [µM]	IC50 [2] [µM]
COc1ccc(CN(C(=O)CSC(=S)N2CCN(C(=O)OC(C)(C)C)CC2)c2ccc(Br)cc2)cc1	> 20	> 20	> 20
COc1ccc(CN(C(=O)CSC(=S)N2CCN(C(=O)OC(C)(C)C)CC2)c2ccccc2)cc1	> 20	> 20	> 20
COc1ccc(CN(C(=O)CN2CCN(C(C)=O)CC2)c2cc(OC)c(OC)c(OC)c2)cc1	12.8	> 20	10.8
COc1ccc(CN(C(=O)CN2CCOCC2)c2cc(OC)c(OC)c(OC)c2)cc1	16.9	> 20	18.9
COc1ccc(CN(C(=O)CSC(=S)N2CCc3ccccc32)c2cc(OC)c(OC)c(OC)c2)cc1	8.41	7.71	6.94
COc1ccc(CN(C(=O)CSC(=S)N2CCN(C(=O)OC(C)(C)C)CC2)c2ccc(C)cc2)cc1	> 20	> 20	> 20
COc1ccc(CN(C(=O)CSC(=S)N2CCN(C(=O)OC(C)(C)C)CC2)c2ccc(OC)cc2)cc1	> 20	> 20	> 20
COc1cc(N(Cc2ccc(Br)cc2)C(=O)CSC(=S)N2CCN(C(=O)OC(C)(C)C)CC2)cc(OC)c1OC	12.4	11.4	10.7
COc1ccc(CN(C(=O)CSC(=S)N2CCN(C(=O)OC(C)(C)C)CC2)c2cc(OC)c(OC)c(OC)c2)cc1F	4.87	8.21	2.41
COc1cc(NC(=O)CSC(=S)N2CCN(C(=O)OC(C)(C)C)CC2)c(Cc2ccccc2)c(OC)c1OC	> 20	16	> 20
COc1ccc(CN(C(=O)CSC(=S)N2CCCc3cc(OC)ccc32)c2cc(OC)c(OC)c(OC)c2)cc1	8.21	> 20	5.53
COc1ccc(CN(C(=O)CSC(=S)N2CCN(C(=O)OC(C)(C)C)CC2)c2cc(OC)c(OC)c(OC)c2)cc1C	> 20	> 20	> 20
COc1cc(N(Cc2ccc(Cl)cc2)C(=O)CSC(=S)N2CCN(C(=O)OC(C)(C)C)CC2)cc(OC)c1OC	12.9	8.49	11.9
COc1cc(N(Cc2ccc(C)cc2)C(=O)CSC(=S)N2CCN(C(=O)OC(C)(C)C)CC2)cc(OC)c1OC	16.7	> 20	> 20
COc1ccc(CN(C(=O)CSC(=S)N2CCN(C(=O)OC(C)(C)C)CC2)c2cc(OC)c(OC)c(OC)c2)cc1Br	3.71	9.71	1.85
CCN1CCN(C(=S)SCC(=O)N(Cc2ccc(OC)cc2)c2cc(OC)c(OC)c(OC)c2)CC1	9.89	7.7	3.07
COc1ccc(CN(C(=O)CSC(=S)N2CCc3ccccc3C2)c2cc(OC)c(OC)c(OC)c2)cc1	5.94	15.9	> 20
COc1cc2c(c(OC)c1OC)-c1ccc(OC)c(=O)cc1[C@@H](NC(C)=O)CC2 [COLCHICINE]	0.09		0.22
CCN1CCN(CC(=O)N(Cc2ccc(OC)cc2)c2cc(OC)c(OC)c(OC)c2)CC1	> 20	> 20	16.1
COc1ccc(CN(C(=O)CN2CCN(C(=O)OC(C)(C)C)CC2)c2cc(OC)c(OC)c(OC)c2)cc1	9.5	18.1	8.17
COc1ccc(CN(C(=O)CSC(=S)N2CCc3cc(Br)ccc32)c2cc(OC)c(OC)c(OC)c2)cc1	> 20	8.06	> 20
COc1ccc(CN(C(=O)CSC(=S)N2CCN(C(=O)OC(C)(C)C)CC2)c2ccc(Cl)cc2)cc1	> 20	> 20	> 20
COc1ccc(CN(C(=O)CSC(=S)N2CCN(C(=O)OC(C)(C)C)CC2)c2cc(OC)c(OC)c(OC)c2)cc1OC	> 20	> 20	> 20
COc1ccc(CN(C(=O)CSC(=S)N2CCc3cc(OC)ccc32)c2cc(OC)c(OC)c(OC)c2)cc1	11.7	9.81	10.2

Further lines, with some results ahead:

IC50 [1] [µM]	IC50 [3] [µM]	SMILES	IC50 [2] [µM]
6.49	5.23	COc1ccc(CN(C(=O)CSC(=S)N2CCCc3cc(C)ccc32)c2cc(OC)c(OC)c(OC)c2)cc1	5.21
2.37	4.13	COc1ccc(CN(C(=O)CSC(=S)N2CCOCC2)c2cc(OC)c(OC)c(OC)c2)cc1	7.22
0.31	0.78	COc1ccc(CN(C(=O)CSC(=S)N2CCN(C(C)=O)CC2)c2cc(OC)c(OC)c(OC)c2)cc1O	0.21
0.184	0.352	COc1ccc(CN(C(=O)CSC(=S)N2CCN(C(=O)OC(C)(C)C)CC2)c2cc(OC)c(OC)c(OC)c2)cc1N	0.208
0.81	0.78	COc1ccc(CN(C(=O)CSC(=S)N2CCN(C(=O)OC(C)(C)C)CC2)c2cc(OC)c(OC)c(OC)c2)cc1N=[N+]=[N-]	0.84
5.39	6.89	COc1ccc(CN(C(=O)CSC(=S)N2CCN(Cc3ccc(C(C)(C)C)cc3)CC2)c2cc(OC)c(OC)c(OC)c2)cc1	2.14
0.48	1.37	COc1ccc(CN(C(=O)CSC(=S)N2CCN(C(C)=O)CC2)c2cc(OC)c(OC)c(OC)c2)cc1	0.37
	3.28	COc1ccc(CN(C(=O)CSc2nc3ccccc3o2)c2cc(OC)c(OC)c(OC)c2)cc1	0.84
0.31	0.62	COc1ccc(CN(C(=O)CSC(=S)N2CCN(C(=O)OC(C)(C)C)CC2)c2cc(OC)c(OC)c(OC)c2)cc1	0.25
0.86	0.81	COc1ccc(CN(C(=O)CSC(=S)N2CCN(C)CC2)c2cc(OC)c(OC)c(OC)c2)cc1O	0.76
1.28	2.64	COc1ccc(CN(C(=O)CSC(=S)N2CCN(C)CC2)c2cc(OC)c(OC)c(OC)c2)cc1	1.25
0.38	0.53	CCN1CCN(C(=S)SCC(=O)N(Cc2ccc(OC)c(O)c2)c2cc(OC)c(OC)c(OC)c2)CC1	0.32
> 20	4.97	COc1ccc(CN(C(=O)CSC(=S)N2CCCC2)c2cc(OC)c(OC)c(OC)c2)cc1	13.8
0.88	0.98	COc1ccc(CN(C(=O)CSC(=S)N2CCN(C(=O)OC(C)(C)C)CC2)c2cc(OC)c(OC)c(OC)c2)cc1[N+](=O)[O-]	0.81

Reference: ChEMBL document CHEMBL5042512 (Eur J Med Chem, 2022)
